# Test system: a variety of test species
# Test: Post-emergence herbicidal activity
# Format: in vivo
# Set-up: key to ABUTH (Abutilon theophrasti) damage score / AMARE (Amaranthus retroflexus) damage score / ALOMY (Alopecurus myosuroides) damage score / ECHCG (Echinochloa crus-galli) damage score / ZEAMX (Zea mays) damage score / SOLNI (Solanum nigrum) damage score: 0 = no damage to plant, 5 = total damage to plant
# Settings: rate 250 g/ha, evaluated after 13 days
# Procedure, shortened: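 Damage on a 0–5 scale (5 = plant killed) was rated 13 days after treatment. Test species had been sown in standard soil and raised 8 days under glasshouse conditions of 24/16 °C, 14 h light, 65% humidity. They were then sprayed with aqueous solution from an acetone/water 50:50 formulation containing 0.5% Tween 20.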
Structure (SMILES),ABUTH (Abutilon theophrasti) damage score,ALOMY (Alopecurus myosuroides) damage score,AMARE (Amaranthus retroflexus) damage score,ECHCG (Echinochloa crus-galli) damage score,SETFA (Setaria faberi) damage score,ZEAMX (Zea mays) damage score
COC1=C(C)C(=O)N(c2cc(C(F)(F)F)c(OCCc3ccsc3)cn2)C1O (stereo not drawn) [AD87],4,3,5,2,3,1
COC1=C(C)C(=O)N(c2cc(C(F)(F)F)c(OCCc3cccs3)cn2)C1O (stereo not drawn) [AD76],4,2,4,1,3,1

# Same assay, conditions: rate 1000 g/ha, evaluated after 13 days
Structure (SMILES),ABUTH (Abutilon theophrasti) damage score,ALOMY (Alopecurus myosuroides) damage score,AMARE (Amaranthus retroflexus) damage score,ECHCG (Echinochloa crus-galli) damage score,SETFA (Setaria faberi) damage score,ZEAMX (Zea mays) damage score,SOLNI (Solanum nigrum) damage score
COC1=C(C)C(=O)N(c2cc(C(F)(F)F)c(SCc3ccccc3)cn2)C1O (stereo not drawn) [AD93],3,2,4,3,4,0,–
CCc1cc(N2C(=O)C(C)=C(OC)C2O)ncc1-c1cccc(C#N)c1 (stereo not drawn) [AD99],5,1,5,5,4,1,–
COC1=C(C)C(=O)N(c2cc(C)c(-c3ccc(F)cc3)cn2)C1O (stereo not drawn) [AD60],5,2,5,1,4,1,–
COC1=C(C)C(=O)N(c2cc(C)c(NC(=O)C(C)(C)C)cn2)C1O (stereo not drawn) [AD90],5,5,5,5,5,2,–
COC1=C(C)C(=O)N(c2cc(C)c(-c3cccc([N+](=O)[O-])c3)cn2)C1O (stereo not drawn) [AD118],5,2,5,2,4,0,–
COc1nnc(N2C(=O)C(C)=C(Cl)C2O)cc1C (stereo not drawn) [BA1],2,2,3,1,2,1,–
COC1=C(C)C(=O)N(c2cc(C(F)(F)F)c(OCc3cccc(OC)c3)cn2)C1O (stereo not drawn) [AD74],3,2,5,2,5,1,–
CC1=C(Cl)C(O)N(c2cc(C(F)(F)F)ccn2)C1=O (stereo not drawn) [AA35],–,2,5,4,4,0,5
COC1=C(C)C(=O)N(c2cc(C(F)(F)F)ncn2)C1O (racemic) [CD4],5,5,3,5,5,1,–
CCc1cc(N2C(=O)C(C)=C(OC)C2O)ncc1-c1ccc(F)cc1F (stereo not drawn) [AD106],5,2,5,4,4,0,–
COC1=C(C)C(=O)N(c2cc(C)c(-c3ccc([N+](=O)[O-])cc3)cn2)C1O (stereo not drawn) [AD116],2,0,5,0,1,1,–
CC1=C(Cl)C(O)N(c2cc(C(F)(F)F)ncn2)C1=O (stereo not drawn) [CA2],0,1,0,0,0,0,–
COC1=C(C)C(=O)N(c2ncc(Cl)c(N(C)C)n2)C1O (racemic) [DD3],3,2,4,2,6,1,–
CC1=C(Cl)C(O)N(c2ccc(OC(F)(F)F)cn2)C1=O (stereo not drawn) [AA38],1,1,4,1,1,0,–
"CCOC1=C(C)C(=O)N(c2cc(C(F)(F)F)ccn2)C1O (stereo not drawn) [AD45, 3-ethoxy-2-hydroxy-4-methyl-1-[4-(trifluoromethyl)-2-pyridyl]-2H-pyrrol-5-one]",5,4,5,5,3,1,–
CC1=C(Cl)C(O)N(c2cc(C(F)(F)F)c(C(=O)NC(C)(C)C)cn2)C1=O (stereo not drawn) [AA46],5,3,5,3,3,0,–
"COC1=C(C)C(=O)N(c2cc(C(F)(F)F)c(C=C(C)C)cn2)C1O (stereo not drawn) [AD21, 2-hydroxy-3-methoxy-4-methyl-1-[5-(2-methylprop-1-enyl)-4-(trifluoromethyl)-2-pyridyl]-2H-pyrrol-5-one]",5,2,5,5,4,0,–
COC1=C(C)C(=O)N(c2cc3c(cn2)CCCC3)C1O (stereo not drawn) [AD64],4,1,2,3,5,1,–
COC1=C(C)C(=O)N(c2cc(C)c(S(=O)(=O)N3CCCCC3)cn2)C1O (stereo not drawn) [AD97],0,0,0,0,0,0,–
COC1=C(C)C(=O)N(c2cc(Cl)ncn2)C1O (racemic) [CD2],2,3,5,3,4,1,–
CCCC1=C(Cl)C(O)N(c2cc(C(C)(C)C#N)ncn2)C1=O (stereo not drawn) [CA4],2,1,1,0,1,1,–
COC1=C(Cl)C(O)N(c2cc(C(F)(F)F)ccn2)C1=O (stereo not drawn) [AF2],5,4,5,5,5,3,–
COC1=C(C)C(=O)N(c2cc(Br)ncn2)C1O (racemic) [CD5],3,1,4,1,2,0,–
CCOc1nnc(N2C(=O)C(C)=C(OC)C2O)cc1C(C)C (stereo not drawn) [BD7],5,5,5,5,5,3,–
CC1=C(Cl)C(O)N(c2cc(C(C)C)c(C(=O)OC(C)C)cn2)C1=O (stereo not drawn) [AA9],4,2,4,1,1,1,–
COC1=C(C)C(=O)N(c2cc(C(F)(F)F)c(C(=O)NCc3ccccc3)cn2)C1O (stereo not drawn) [AD98],5,4,5,4,4,1,–
COC1=C(C)C(=O)N(c2cc(C)c(-c3cc(F)c(F)c(F)c3)cn2)C1O (stereo not drawn) [AD114],4,2,5,1,3,0,–
COC1=C(C)C(=O)N(c2cc(Cl)c(-c3ccsc3)cn2)C1O (stereo not drawn) [AD134],3,1,5,2,5,1,–

# Source: patent US9611248B2, “Chemical compounds” (Syngenta Participations AG, priority 2013, dated 2017)
